In patent US7557144B1, “Modulation of protein expression using carbocyclic aryl alkenoic acid derivatives” (The Johns Hopkins University, priority 2000, dated 2009):

Columns and labels:
Assay type in all cases: cell-based, human
[1] = system: Hsc70 mRNA; assay: RNase protection assay of Hsc70 mRNA in IB3-1 cells; conditions: 2 days, 1 mM butyrate, 1 M glycerol
Excerpt: 4. RNase protection. An Hsc70-specific probe for RNase protec-tion was constructed by isolation a 500-bp EcoR I fragment from American Type Culture Collection (ATCC) plasmid 77659 (ATCC, Manassas, Va.) and ligating this fragment into the EcoR I site of pSK(2) (Bluescript, Stratagene, La Jolla, Calif.). The resulting plasmid was sequenced in the Genetics Core Facility at the Johns Hopkins Hospital and found to be identical to sequences in exons 8 and 9 of the human Hsc70 sequence, with sequencing using the T3 primer and T7 primer leading to sense and antisense sequence, respectively. Hybridization probes were synthesized using a Maxiscript T7 kit (Ambion, Austin, Tex.) and [α^32 P]UTP (Amersham or DuPont NEN, Boston, Mass.) according to the Maxiscript protocol. Templates for internal control hybridizations, pTRI-18S and pTRI-cyclophilin A, were purchased from Ambion, and probes were similarly synthesized using the Maxiscript T7 kit. Probes were isolated by acid phenol-chloroform (Ambion) extraction, separated from unincorporated nucleotide by gel filtration (Sephadex G25 RNAspin column, Boehringer-Mannheim), and ethanol-acetate precipitated before resuspension in hybridization buffer. The concentration of radioactivity in the synthesized probes was determined by liquid scintillation.
RNase protection experiments were performed using the Direct Protect RNase protection assay kit (Ambion) according to the manufacturer's protocol. IB3-1 cell lysates were pre-pared in Direct Protect lysis buffer according to the manufacturer's protocol after incubation under the appropriate conditions for 48 h. Probe (50-70 and 5-10 thousands of counts/min for Hsc70 and control, respectively) and cellular RNA were hybridized overnight at 37° C. and digested with RNase cocktail. Protected fragments were resolved by electrophoresis on 5% acrylamide-8 M urea gels and detected by fluorography. Hsc70 mRNA concentration is expressed relative to control (18S or cyclophilin A) hybridization by densitometry (see Densitometric analysis). Results for hybridization of Hsc70 mRNA relative to the two control species were similar and were therefore grouped for data analysis.
FIGS. 3A-B are explained in more detailed as follows. Dose-dependent downregulation of Hsc70 mRNA expression by 4-PBA. A: IB3-1 cells were treated as for FIGS. 1 and 2. Hsc70 mRNA and 18S rRNA (as an internal reference) were measured by Direct Protect RNase protection as described under General Comments. […] P values (shown above respective error bars) were determined by 1-way ANOVA in comparison with control.
FIG. 6 is explained in more detail as follows. […] P values (shown above respective error bars) were determined by 1-way ANOVA in comparison with control.

[2] = system: Hsc70; assay: Hsc70 immunoblot of IB3-1 whole cell lysates; conditions: IB3-1 cells, 37° C., 2 days; butyrate 1 mM, glycerol 1 M, phenylacetate 1 mM, G418 0.2 mg/ml
Method: (§1) 3. Immunoblot analysis. Whole cell lysates were prepared by solubilization with 2% SDS at 95° C. Protein concentration in the lysates was determined using the Bio-Rad DC assay reagents with bovine plasma g-globulin as a standard (Bio-Rad Laboratories, Hercules, Calif.). Equal amounts of protein was resolved on 5, 7, 8, or 9% SDS-polyacrylamide gels. Proteins were transferred to nitrocellulose, and immunodetection was performed as previously described (25). Nonspecific binding was blocked by incubation of the nitrocellulose with 2% gelatin or 10% nonfat day milk. Primary antisera and secondary antibodies were applied in buffer containing 0.4% BSA overnight at 4° C. and for 1 h at room temperature, respectively. Detection of immunoreactivity was performed with the enhanced chemiluminescence reagent (ECL, Amer-sham) and fluorography. Recombinant bovine Hsc70 ([…]) was purchased from Stressgen Biotechnologies for use in constructing a standard curve of Hsc70 immunoreactivity. Immunoblots containing the bovine Hsc70 were probed with the Hsc70-specific polyclonal antiserum.

[3] = system: Hsp90; assay: Hsp90 immunoblot of IB3-1 lysates; conditions: IB3-1 cells, 37° C., 2 days; butyrate 1 mM, glycerol 1 M, phenylacetate 1 mM, G418 0.2 mg/ml
Method: as §1
(§2) Whether 4-PBA would regulate expression of a number of other molecular chaperones in IB3-1 cells (FIG. 2) was assessed next. […] Hsp90 is required for correct folding and function of a number of cellular proteins (16). […] Hsp70 (Hsp72) expression is induced by heat shock and the presence of denatured proteins within the eukaryotic cell (16). In Escherichia coli, the Hsp70 homologue DnaK and the Hsp40 homologue DnaJ act to promote protein folding (16). Hdj2 is the member of the Hsp40 family that specifically interacts with and regulates the ATPase activity of Hsc70. Hdj2 also interacts with CFTR during CFTR translation (26).
(§3) FIGS. 2A-2E are more specifically explained as follows. […]
(§4) FIGS. 5A-C are explained in more detail as follows. […] Cellular homogenates were prepared in 2% SDS as described in METHODS, and 5 μg of total cellular protein were analyzed by immunoblot for Hsc70 using rabbit polyclonal antiserum, Hsp90, Hsp70, Hsp40 as described above under General Comments. […]

[4] = system: Hsp70; assay: Hsp70 immunoblot of IB3-1 lysates; conditions: IB3-1 cells, 37° C., 2 days; butyrate 1 mM, glycerol 1 M, phenylacetate 1 mM, G418 0.2 mg/ml
Method: as §1, §2
FIGS. 2A-2E are more specifically explained as follows. […] IB3-1 cells were treated as described for FIG. 1. Immunoblotting with 5 μg of IB3-1 SDS lysate protein was performed as described in the foregoing General Comments.
FIGS. 5A-C are explained in more detail as follows. […] A: IB3-1 cells were incubated at 37° C. for 2 days under indicated conditions. Cellular homogenates were prepared in 2% SDS as described in METHODS, and 5 μg of total cellular protein were analyzed by immunoblot for Hsc70 using rabbit polyclonal antiserum, Hsp90, Hsp70, Hsp40 as described above under General Comments. Con, control. B and C: densitometric analysis of Hsc70 expression (B) and Hsp90, Hsp70, and Hsp40 expression (C) was performed as described for FIG. 1. B: means 6 SE of density in 4 independent experiments.

[5] = system: Hsp40; assay: Hsp40 immunoblot of IB3-1 lysates; conditions: IB3-1 cells, 37° C., 2 days; butyrate 1 mM, glycerol 1 M, phenylacetate 1 mM, G418 0.2 mg/ml
Method: as §1, §2, §3, §4

[6] = system: ΔF508-CFTR/Hsc70 complex; assay: Immunoprecipitation of Hsc70 and coimmunoprecipitation of CFTR from treated IB3-1 cells; conditions: 2 days, butyrate 1 mM, glycerol 1 M, phenylacetate 1 mM, G418 0.2 mg/ml
[7] = system: ΔF508-CFTR; assay: CFTR immunoprecipitation and phosphorylation in IB3-1 cells (bands B and C)
Method: CFTR was immunoprecipitated and phosphorylated as described in the Methods. […] Band B CFTR is barely visible consistent with low level ΔF508 expression. The positive control condition, untreated cells grown at 28° C., is in lane 7. Band C has been induced and Band B is relatively depleted consistent with an effect of low temperature on protein trafficking. […] This is consistent with an effect on protein production and on protein trafficking.
Shown in FIGS. 9A and 9B are independent experiments performed as described above. Now the control cells are analyzed in lane 5. Lanes 1-4 show decreasing concentrations of the test compound.
CFTR was detected by immunoprecipitation and phosphorylation. Control cells at 0 and 32 hrs have barely visible CFTR bands B and C. Exposure to low temperature induces band C. 1 mM 4-phenyl-Δ3-transbutenoic acid begins to induce band C and 4 hr and appears maximal by 16 hrs.

[8] = system: ΔF508-CFTR; assay: CFTR bands B and C in primary cystic fibrosis bronchial epithelial cells; conditions: primary CF bronchial epithelial cells, 48 hr
Method: Shown in FIGS. 10A and 10B are results of CF bronchial epithelial cells were harvested from the discarded lungs of a CF patient who underwent therapeutic lung transplant. The genotype is homozygous ΔF508. The methods are as described above. Control cells grown in standard conditions for 0 or 48 hrs are in lanes 6 and 7. Bands B and C are barely detectable. […] The test compound in doses from 1 μM to 1 mM for 48 hr is shown in decreasing order in lanes 2-5.

[9] = system: Hsc70; assay: Hsc70 immunoblot in primary CF bronchial epithelial cells
Method: Shown in FIG. 11 is an experiment in which cells were exposed to control or test conditions or study drug for 48 hrs and then analyzed by immunoblotting for Hsc70, a 70 kD heat shock chaperone protein. […] Hsc70 is not as dramatically down regulated by growth at 27° C.
Shown in FIG. 12 is an experiment performed along lines as shown in FIG. 10A in the same primary cell line. Hsc70 under control conditions is strongly visible in lane 6. Study drug at 1 μM or higher, and low temperature, are associated with more than 50% reduction in Hsc70.

[10] = IB3-1 cells, 1 μM to 100 μM, 48 hr (FIG. 8)

Structure (SMILES) | reduction in steady-state Hsc70 mRNA levels [1] [%] | Hsc70 immunoreactivity [2] | Hsp90 immunoreactivity [3] | Hsp70 immunoreactivity [4] | Hsp40 immunoreactivity [5] | amount of immunoreactive CFTR coprecipitated with Hsc70 [6] | further results
CCCC(=O)O [butyrate, butyric acid] | ~50 |  |  |  |  |  | 
OCC(O)CO [glycerol] | ~50 | reduction | not change | not change | not change | decreases | 
O=C(O)CC=Cc1ccccc1 [4-phenyl-Δ3-transbutenoic acid] |  |  |  |  |  |  | Band B and total CFTR [7, 10]: induction; induction of Band C CFTR [7, 10]: dose-dependent induction of Band C; time at which induction of band C begins ([7]; IB3-1 cells, 1 mM): 4 h; time by which induction of band C appears maximal ([7]; IB3-1 cells, 1 mM): ≤ 16 h; induction of CFTR bands B and C ([7]; IB3-1 cells, independent experiments (FIGS. 9A and 9B)): dose-dependent induction of bands B and C; effectiveness compared with 4-PBA ([7]; data of Examples 4-12): much more effective at lower concentrations; concentration giving maximum induction of bands B and C ([8]; doses 1 μM to 1 mM): 1 mM; induction of CFTR bands B and C ([8]; homozygous ΔF508, 1 μM): dramatic induction of bands B and C; reduction in Hsc70 ([9]; 1 μM or higher (FIG. 12)): more than 50%; reduction in Hsc70 ([9]; 100 μM and 1 mM, 48 hrs, semi-quantitative blot (FIG. 11)): ≥ 50%
O=C(O)Cc1ccccc1 [Phenylacetate, phenylacetic acid] |  | little effect | little effect | not affected | not affected | little effect | 
